# Measurements reported in ChEMBL document CHEMBL5678816, “A Next-Generation TRK Kinase Inhibitor Overcomes Acquired Resistance to Prior TRK Kinase Inhibition in Patients with TRK Fusion-Positive Solid Tumors” (Cancer Discov, 2017).
# Active and inactive are the calls of the source. The calls are words filed in the database; no cut-off is given here.
# Assays:
# [1] = Cmax in pediatric patient with recurrent ETV6-NTRK3-rearranged infantile fibrosarcoma at 100 mg administered twice a day as liquid formulation for 29 day by LC-MS/MS analysis; format: ADME; conditions: human, in vivo
# [2] = biological target: Epidermal growth factor receptor (Homo sapiens) (UniProt P00533); assay: Inhibition of EGFR (unknown origin) at 1 uM in presence of ATP relative to control; values are per cent of control
# Sequence of Epidermal growth factor receptor (Homo sapiens) (P00533 whole entry): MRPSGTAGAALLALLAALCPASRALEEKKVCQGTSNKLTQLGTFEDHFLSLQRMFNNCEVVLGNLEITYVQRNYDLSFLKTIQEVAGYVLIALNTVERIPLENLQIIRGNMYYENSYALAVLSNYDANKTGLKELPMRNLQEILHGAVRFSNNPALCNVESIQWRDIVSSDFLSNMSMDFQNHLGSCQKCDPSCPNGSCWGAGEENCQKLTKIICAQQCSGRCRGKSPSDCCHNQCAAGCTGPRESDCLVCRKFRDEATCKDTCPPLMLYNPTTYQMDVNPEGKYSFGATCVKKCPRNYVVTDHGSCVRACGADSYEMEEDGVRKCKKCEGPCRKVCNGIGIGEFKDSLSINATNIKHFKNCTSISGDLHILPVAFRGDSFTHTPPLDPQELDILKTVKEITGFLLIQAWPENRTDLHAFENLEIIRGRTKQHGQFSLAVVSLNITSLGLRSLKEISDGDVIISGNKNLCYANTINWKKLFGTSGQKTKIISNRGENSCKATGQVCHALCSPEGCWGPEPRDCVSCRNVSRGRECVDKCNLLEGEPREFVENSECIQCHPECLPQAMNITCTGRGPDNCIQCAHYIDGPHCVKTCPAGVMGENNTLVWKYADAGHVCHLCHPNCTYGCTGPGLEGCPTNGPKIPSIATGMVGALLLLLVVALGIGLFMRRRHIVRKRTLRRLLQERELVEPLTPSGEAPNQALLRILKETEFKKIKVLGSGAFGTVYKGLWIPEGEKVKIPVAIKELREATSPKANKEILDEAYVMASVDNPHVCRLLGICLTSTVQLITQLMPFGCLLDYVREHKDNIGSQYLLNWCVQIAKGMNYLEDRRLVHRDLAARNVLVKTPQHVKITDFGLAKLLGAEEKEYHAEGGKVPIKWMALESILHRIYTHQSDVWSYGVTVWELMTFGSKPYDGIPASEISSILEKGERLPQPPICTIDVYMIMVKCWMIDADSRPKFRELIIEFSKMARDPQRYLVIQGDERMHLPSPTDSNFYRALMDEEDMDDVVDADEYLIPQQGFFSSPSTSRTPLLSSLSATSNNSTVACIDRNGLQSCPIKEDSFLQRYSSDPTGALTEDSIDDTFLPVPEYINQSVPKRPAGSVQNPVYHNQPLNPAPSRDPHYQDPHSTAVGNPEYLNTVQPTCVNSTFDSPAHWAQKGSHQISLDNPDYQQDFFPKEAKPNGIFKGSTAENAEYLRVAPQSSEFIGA
# [3] = biological target: NUAK family SNF1-like kinase 1 (Homo sapiens) (UniProt O60285); assay: Inhibition of ARK5 (unknown origin) at 1 uM in presence of ATP relative to control; values are per cent of control
# [4] = Cmin in pediatric patient with recurrent ETV6-NTRK3-rearranged infantile fibrosarcoma at 20 mg administered twice a day as liquid formulation for 1 day and measured 12 hrs post dose by LC-MS/MS analysis; format: ADME; conditions: human, in vivo, read-out: Cmin
# [5] = biological target: Hepatocyte growth factor receptor (Homo sapiens) (UniProt P08581); assay: Inhibition of Met (unknown origin) at 1 uM in presence of ATP relative to control; values are per cent of control
# [6] = biological target: Tyrosine-protein kinase BTK (Homo sapiens) (UniProt Q06187); assay: Inhibition of BTK (unknown origin) at 1 uM in presence of ATP relative to control; values are per cent of control
# [7] = biological target: Dual specificity tyrosine-phosphorylation-regulated kinase 2 (Homo sapiens) (UniProt Q92630); assay: Inhibition of DYRK2 (unknown origin) at 1 uM in presence of ATP relative to control; values are per cent of control
# [8] = Toxicity in nu/nu NCr mouse implanted with mouse NIH3T3 cells harboring extracellular domain deleted TRKA G595R mutant assessed as body weight loss at 30 to 300 mg/kg, po administered twice daily for 12 days relative to control; format: organism-based; conditions: in vivo, 288 h, dose 30-300 mg/kg, time 12 day
# DMS-114 = assay: Inhibition of cell proliferation in human DMS-114 cells upto 10 umol/L incubated for 72 hrs by DAPI staining based analysis; format: functional; conditions: dose <= 10.0 µmol/L
# [9] = biological target: Protein kinase C alpha type (Homo sapiens) (UniProt P17252); assay: Inhibition of PKCalpha (unknown origin) at 1 uM in presence of ATP relative to control; values are per cent of control
# TT = assay: Inhibition of cell proliferation in human TT cells upto 10 umol/L incubated for 72 hrs by DAPI staining based analysis; format: functional; conditions: dose <= 10.0 µmol/L
# SAOS-2 = assay: Inhibition of cell proliferation in human SAOS-2 cells upto 10 umol/L incubated for 72 hrs by DAPI staining based analysis; format: functional; conditions: dose <= 10.0 µmol/L
# [10] = biological target: Serine/threonine-protein kinase Nek2 (Homo sapiens) (UniProt P51955); assay: Inhibition of NEK2 (unknown origin) at 1 uM in presence of ATP relative to control; values are per cent of control
# Sequence of Serine/threonine-protein kinase Nek2 (Homo sapiens) (P51955 whole entry): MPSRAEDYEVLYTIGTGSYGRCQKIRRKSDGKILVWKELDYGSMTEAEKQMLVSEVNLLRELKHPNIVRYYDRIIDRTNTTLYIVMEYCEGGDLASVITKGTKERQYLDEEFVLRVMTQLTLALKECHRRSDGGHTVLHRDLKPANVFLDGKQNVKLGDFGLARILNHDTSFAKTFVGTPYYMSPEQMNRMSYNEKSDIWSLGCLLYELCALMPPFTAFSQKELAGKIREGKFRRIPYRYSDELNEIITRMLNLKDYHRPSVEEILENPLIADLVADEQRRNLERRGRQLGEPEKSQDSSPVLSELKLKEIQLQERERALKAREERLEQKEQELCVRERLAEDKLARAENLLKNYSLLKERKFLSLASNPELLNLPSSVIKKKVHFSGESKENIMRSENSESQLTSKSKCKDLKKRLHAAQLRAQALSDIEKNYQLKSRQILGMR
# [11] = biological target: Serine/threonine-protein kinase Sgk2 (Homo sapiens) (UniProt Q9HBY8); assay: Inhibition of SGK2 (unknown origin) at 1 uM in presence of ATP relative to control; values are per cent of control
# [12] = biological target: Activin receptor type-1B (Homo sapiens) (UniProt P36896); assay: Inhibition of ALK4 (unknown origin) at 1 uM in presence of ATP relative to control; values are per cent of control
# Sequence of Activin receptor type-1B (Homo sapiens) (P36896 whole entry): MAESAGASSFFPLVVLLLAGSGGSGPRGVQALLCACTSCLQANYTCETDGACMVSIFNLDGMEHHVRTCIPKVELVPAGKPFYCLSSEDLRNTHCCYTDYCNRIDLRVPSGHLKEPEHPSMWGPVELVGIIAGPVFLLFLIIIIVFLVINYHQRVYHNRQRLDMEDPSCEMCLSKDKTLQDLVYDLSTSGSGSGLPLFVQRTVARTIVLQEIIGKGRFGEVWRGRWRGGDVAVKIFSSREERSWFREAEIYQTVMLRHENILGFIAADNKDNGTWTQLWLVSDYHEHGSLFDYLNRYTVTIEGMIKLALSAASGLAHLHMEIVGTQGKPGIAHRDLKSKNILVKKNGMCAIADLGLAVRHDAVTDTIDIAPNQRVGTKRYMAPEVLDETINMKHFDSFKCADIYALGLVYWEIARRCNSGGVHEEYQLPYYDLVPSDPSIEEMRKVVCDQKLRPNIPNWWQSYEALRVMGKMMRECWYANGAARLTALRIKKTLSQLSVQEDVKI
# MG-63 = assay: Inhibition of cell proliferation in human MG-63 cells upto 10 umol/L incubated for 72 hrs by DAPI staining based analysis; format: functional; conditions: dose <= 10.0 µmol/L
# KG-1 = assay: Inhibition of cell proliferation in human KG-1 cells upto 10 umol/L incubated for 72 hrs by DAPI staining based analysis; format: functional; conditions: dose <= 10.0 µmol/L
# [13] = biological target: CDK6/cyclin D3 (Homo sapiens) (UniProt P30281+Q00534); assay: Inhibition of CDK6/cyclinD3 (unknown origin) at 1 uM in presence of ATP relative to control; values are per cent of control
# T47D = assay: Inhibition of cell proliferation in human T47D cells upto 10 umol/L incubated for 72 hrs by DAPI staining based analysis; format: functional; conditions: dose <= 10.0 µmol/L
# A101D = assay: Inhibition of cell proliferation in human A101D cells upto 10 umol/L incubated for 72 hrs by DAPI staining based analysis; format: functional; conditions: dose <= 10.0 µmol/L
# [14] = biological target: Ephrin type-B receptor 1 (Homo sapiens) (UniProt P54762); assay: Inhibition of EphB1 (unknown origin) at 1 uM in presence of ATP relative to control; values are per cent of control
# Sequence of Ephrin type-B receptor 1 (Homo sapiens) (P54762 whole entry): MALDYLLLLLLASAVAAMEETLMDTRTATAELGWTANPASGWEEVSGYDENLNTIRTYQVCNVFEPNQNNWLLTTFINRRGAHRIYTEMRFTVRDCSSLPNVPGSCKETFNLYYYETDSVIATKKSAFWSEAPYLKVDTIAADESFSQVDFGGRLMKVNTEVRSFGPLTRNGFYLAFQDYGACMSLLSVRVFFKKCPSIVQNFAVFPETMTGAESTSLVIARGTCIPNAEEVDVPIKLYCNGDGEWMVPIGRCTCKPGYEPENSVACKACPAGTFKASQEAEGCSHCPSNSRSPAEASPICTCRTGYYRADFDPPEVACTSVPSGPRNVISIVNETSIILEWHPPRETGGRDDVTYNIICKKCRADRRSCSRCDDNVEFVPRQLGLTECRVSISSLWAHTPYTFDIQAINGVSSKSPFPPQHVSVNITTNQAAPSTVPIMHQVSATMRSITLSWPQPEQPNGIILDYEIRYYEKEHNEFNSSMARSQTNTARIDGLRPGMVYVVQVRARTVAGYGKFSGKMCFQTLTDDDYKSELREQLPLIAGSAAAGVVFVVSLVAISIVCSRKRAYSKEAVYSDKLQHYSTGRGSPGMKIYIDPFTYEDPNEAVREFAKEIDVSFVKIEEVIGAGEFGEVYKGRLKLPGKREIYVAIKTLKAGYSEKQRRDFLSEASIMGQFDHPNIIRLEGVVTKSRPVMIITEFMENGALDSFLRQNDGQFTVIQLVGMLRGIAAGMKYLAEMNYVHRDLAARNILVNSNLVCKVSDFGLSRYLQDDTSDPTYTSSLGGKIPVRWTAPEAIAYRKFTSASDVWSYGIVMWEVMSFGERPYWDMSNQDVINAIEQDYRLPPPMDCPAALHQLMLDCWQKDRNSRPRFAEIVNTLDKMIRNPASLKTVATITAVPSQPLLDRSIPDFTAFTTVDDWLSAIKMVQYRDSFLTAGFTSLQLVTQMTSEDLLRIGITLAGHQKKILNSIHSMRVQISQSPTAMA
# [15] = biological target: Inhibitor of nuclear factor kappa-B kinase subunit beta (Homo sapiens) (UniProt O14920); assay: Inhibition of IKKbeta (unknown origin) at 1 uM in presence of ATP relative to control; values are per cent of control
# [16] = biological target: Tyrosine-protein kinase receptor TYRO3 (Homo sapiens) (UniProt Q06418); assay: Inhibition of Rse (unknown origin) at 1 uM in presence of ATP relative to control; values are per cent of control
# SW579 = assay: Inhibition of cell proliferation in human SW579 cells upto 10 umol/L incubated for 72 hrs by DAPI staining based analysis; format: functional; conditions: dose <= 10.0 µmol/L
# [17] = biological target: SRSF protein kinase 3 (Homo sapiens) (UniProt Q9UPE1); assay: Inhibition of MSSK1 (unknown origin) at 1 uM in presence of ATP relative to control; values are per cent of control
# [18] = biological target: Tyrosine-protein kinase receptor UFO (Homo sapiens) (UniProt P30530); assay: Inhibition of Axl (unknown origin) at 1 uM in presence of ATP relative to control; values are per cent of control
# Sequence of Tyrosine-protein kinase receptor UFO (Homo sapiens) (P30530 whole entry): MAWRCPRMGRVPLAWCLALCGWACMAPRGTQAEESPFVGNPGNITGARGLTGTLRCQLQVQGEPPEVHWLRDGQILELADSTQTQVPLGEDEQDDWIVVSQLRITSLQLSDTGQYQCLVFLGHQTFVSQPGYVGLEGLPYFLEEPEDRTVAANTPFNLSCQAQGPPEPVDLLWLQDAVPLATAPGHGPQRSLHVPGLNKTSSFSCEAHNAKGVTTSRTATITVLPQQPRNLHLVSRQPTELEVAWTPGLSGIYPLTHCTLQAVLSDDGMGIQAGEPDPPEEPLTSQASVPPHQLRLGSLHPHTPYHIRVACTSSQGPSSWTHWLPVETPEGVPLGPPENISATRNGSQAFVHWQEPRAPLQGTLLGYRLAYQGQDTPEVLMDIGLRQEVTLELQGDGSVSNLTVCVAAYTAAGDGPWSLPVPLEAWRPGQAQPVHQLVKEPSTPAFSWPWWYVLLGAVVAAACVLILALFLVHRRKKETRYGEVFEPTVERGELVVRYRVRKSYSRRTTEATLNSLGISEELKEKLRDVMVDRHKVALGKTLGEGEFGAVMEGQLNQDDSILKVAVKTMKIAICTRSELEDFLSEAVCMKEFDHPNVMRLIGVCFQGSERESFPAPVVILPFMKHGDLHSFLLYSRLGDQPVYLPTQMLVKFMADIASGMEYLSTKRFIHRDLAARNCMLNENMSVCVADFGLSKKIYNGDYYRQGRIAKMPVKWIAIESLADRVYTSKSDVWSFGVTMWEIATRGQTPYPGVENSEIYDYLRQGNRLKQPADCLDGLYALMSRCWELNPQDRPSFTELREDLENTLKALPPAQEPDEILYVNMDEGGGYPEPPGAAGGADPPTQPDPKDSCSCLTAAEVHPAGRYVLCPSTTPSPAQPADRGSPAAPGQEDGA
# [19] = biological target: Insulin receptor (Homo sapiens) (UniProt P06213); assay: Inhibition of Activated IR (unknown origin) at 1 uM in presence of ATP relative to control; values are per cent of control
# [20] = biological target: Protein kinase C beta type (Homo sapiens) (UniProt P05771); assay: Inhibition of PKCbetall (unknown origin) at 1 uM in presence of ATP relative to control; values are per cent of control
# [21] = biological target: Mitogen-activated protein kinase 13 (Homo sapiens) (UniProt O15264); assay: Inhibition of […] (unknown origin) at 1 uM in presence of ATP relative to control; values are per cent of control
# Sequence of Mitogen-activated protein kinase 13 (Homo sapiens) (O15264 whole entry): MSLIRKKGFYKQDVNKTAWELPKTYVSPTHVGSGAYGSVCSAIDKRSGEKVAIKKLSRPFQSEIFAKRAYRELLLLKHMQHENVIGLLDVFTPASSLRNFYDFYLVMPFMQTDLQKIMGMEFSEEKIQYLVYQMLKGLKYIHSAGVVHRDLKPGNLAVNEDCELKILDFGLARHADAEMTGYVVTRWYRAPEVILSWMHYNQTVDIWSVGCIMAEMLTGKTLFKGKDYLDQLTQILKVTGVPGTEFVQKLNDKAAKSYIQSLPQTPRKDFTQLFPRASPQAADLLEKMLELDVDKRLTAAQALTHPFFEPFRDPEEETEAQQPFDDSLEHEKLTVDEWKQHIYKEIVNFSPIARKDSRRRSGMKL
# [22] = Cmin in pediatric patient with recurrent ETV6-NTRK3-rearranged infantile fibrosarcoma at 60 mg administered twice a day as liquid formulation for 29 day and measured 12 hrs post dose by LC-MS/MS analysis; format: ADME; conditions: human, in vivo, read-out: Cmin
structure (smiles),measurement,setting,value
C[C@@H]1CCc2ncc(F)cc2[C@H]2CCCN2c2ccn3ncc(c3n2)C(=O)N1 [SELITRECTINIB],Cmax,[1],776 ng/mL
same,residual activity,[2],103%
same,residual activity,[3],98%
same,concentration at 36 h,[4],< 1 ng/mL
same,residual activity,[5],109%
same,residual activity,[6],87%
same,residual activity,[7],102%
same,Activity,[8],< 5%
same,inhibition,DMS-114,inactive
same,residual activity,[9],107%
same,inhibition,TT,inactive
same,inhibition,SAOS-2,inactive
same,residual activity,[10],117%
same,residual activity,[11],136%
same,residual activity,[12],96%
same,inhibition,MG-63,inactive
same,inhibition,KG-1,inactive
same,residual activity,[13],110%
same,inhibition,T47D,inactive
same,inhibition,A101D,inactive
same,residual activity,[14],112%
same,residual activity,[15],119%
same,residual activity,[16],110%
same,inhibition,SW579,inactive
same,residual activity,[17],122%
same,residual activity,[18],90%
same,residual activity,[19],97%
same,residual activity,[20],90.5%
same,residual activity,[21],110%
same,concentration at 708 h,[22],12 ng/mL
